Results as given in patent publication US9695155B2, “Herbicidal substituted pyrimidinyloxy benzene compounds” (E. I. DU PONT DE NEMOURS AND COMPANY, priority 2013, dated 2017).

Assays:
wheat, winter = experiment: Test C postemergence; assay type: in vivo, Triticum aestivum
Outline: (§1)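 Visual injury score versus untreated controls, 0 = no effect, 100 = complete control, taken 13 to 15 days after treatment in the greenhouse. Pre-emergence pots held loam/sand; post-emergence plants grew in sphagnum peat/vermiculite mix and were sprayed at the 1- to 4-leaf stage.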

yellow nutsedge [1] = experiment: Test C preemergence; assay type: in vivo, Cyperus esculentus; settings: Cyperus, pre-emergence
Outline: as §1

pigweed [2] = experiment: Test C postemergence; assay type: in vivo, Amaranthus retroflexus
Outline: as §1

rice = experiment: Test B flooded paddy test; assay type: in vivo, Oryza sativa; settings: Oryza sativa; Flood, 250 g ai/ha; 0 to 100 scale where 0 is no effect and 100 is complete control; read-out: Plant response rating, Rice
Outline: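 2-leaf stage plants; pots flooded to 3 cm, compound added to paddy water, depth maintained. Greenhouse 13–15 d. Visual rating vs untreated controls, 0 (no effect) to 100 (complete control); dash = no result.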

lambsquarters = experiment: Test C postemergence; assay type: in vivo, Chenopodium album
Outline: as §1

yellow nutsedge [3] = experiment: Test C postemergence; assay type: in vivo, Cyperus esculentus
Outline: as §1

wild oat = experiment: Test C postemergence; assay type: in vivo, Avena fatua
Outline: as §1

blackgrass = experiment: Test C postemergence; assay type: in vivo, Alopecurus myosuroides; settings: Alopecurus myosuroides, post-emergence
Outline: as §1

ragweed = experiment: Test C postemergence; assay type: in vivo, Ambrosia elatior
Outline: as §1

pigweed [4] = experiment: Test C preemergence; assay type: in vivo, Amaranthus retroflexus; settings: Amaranthus retroflexus, pre-emergence
Outline: as §1

soybean = experiment: Test C preemergence; assay type: in vivo, Glycine max; settings: Glycine max, pre-emergence
Outline: as §1

corn = experiment: Test A preemergence; assay type: in vivo, Zea mays
Outline: (§2)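 Scoring: eye-based comparison with untreated controls, 0 for no effect through 100 for complete control, at about day 10. Treatments: directed soil spray preemergence; foliar spray postemergence on 2–10 cm plants at the one- to two-leaf stage. Medium: loam soil with sand.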

Italian ryegrass = experiment: Test C postemergence; assay type: in vivo, Lolium multiflorum
Outline: as §1

velvetleaf = experiment: Test C preemergence; assay type: in vivo, Abutilon theophrasti; settings: Abutilon theophrasti, pre-emergence
Outline: as §1

giant foxtail = experiment: Test A preemergence; assay type: in vivo, Setaria faberii
Outline: as §2

[5] = 31 g ai/ha, postemergence, visual rating, scale 0 to 100 (0 no effect, 100 complete control), 13 to 15 days

SMILES: FC(F)c1cccc(Oc2ncc(Cl)cn2)c1-n1cc(Br)cn1 [Compound 194, 2-[2-(4-bromo-1H-pyrazol-1-yl)-3-(difluoromethyl)phenoxy]-5-chloropyrimidine]
- Wheat plant response rating (wheat, winter; [5]): 0
- plant injury at 125 g/ha (wheat, winter; Triticum aestivum, post-emergence, 125 g ai/ha, postemergence, visual rating, scale 0 to 100 (0 no effect, 100 complete control), read-out: Plant response rating, Wheat): 0%
- plant injury at 250 g/ha (wheat, winter; Triticum aestivum, post-emergence, 250 g ai/ha, postemergence, read-out: Plant response rating (0 to 100), Wheat): 5%
- plant injury at 62 g/ha (wheat, winter; Triticum aestivum, post-emergence, Postemergence, 62 g ai/ha, scale 0 to 100 (0 no effect, 100 complete control), 13 to 15 days, read-out: Plant response rating, Wheat): 0%
- pest or weed control at 125 g/ha (yellow nutsedge [1]; 125 g ai/ha, preemergence, scale 0 (no effect) to 100 (complete control), read-out: Nutsedge, Yellow plant response rating): 0%
- pest or weed control at 250 g/ha (yellow nutsedge [1]; 250 g ai/ha, preemergence, scale 0 (no effect) to 100 (complete control), read-out: Nutsedge, Yellow plant response rating): 25%
- pest or weed control at 62 g/ha (yellow nutsedge [1]; Preemergence, 62 g ai/ha, scale 0 to 100, 0 no effect, 100 complete control, read-out: Plant response rating, Nutsedge, Yellow): 0%
- Pigweed plant response rating (pigweed [2]; [5]): 75
- pest or weed control at 125 g/ha (pigweed [2]; Amaranthus retroflexus, post-emergence, 125 g ai/ha, postemergence, visual rating, scale 0 to 100 (0 no effect, 100 complete control), read-out: Plant response rating, Pigweed): 90%
- pest or weed control at 250 g/ha (pigweed [2]; Amaranthus retroflexus, post-emergence, 250 g ai/ha, postemergence, read-out: Plant response rating (0 to 100), Pigweed): 95%
- pest or weed control at 62 g/ha (pigweed [2]; Amaranthus retroflexus, post-emergence, Postemergence, 62 g ai/ha, scale 0 to 100 (0 no effect, 100 complete control), 13 to 15 days, read-out: Plant response rating, Pigweed): 75%
- plant injury at 250 g/ha (rice): 0%
- Lambsquarters plant response rating (lambsquarters; [5]): 60
- pest or weed control at 125 g/ha (lambsquarters; Chenopodium album, post-emergence, 125 g ai/ha, postemergence, visual rating, scale 0 to 100 (0 no effect, 100 complete control), read-out: Plant response rating, Lambsquarters): 90%
- pest or weed control at 250 g/ha (lambsquarters; Chenopodium album, post-emergence, 250 g ai/ha, postemergence, read-out: Plant response rating (0 to 100), Lambsquarters): 98%
- pest or weed control at 62 g/ha (lambsquarters; Chenopodium album, post-emergence, Postemergence, 62 g ai/ha, scale 0 to 100 (0 no effect, 100 complete control), 13 to 15 days, read-out: Plant response rating, Lambsquarters): 80%
- Nutsedge, Yellow plant response rating (yellow nutsedge [3]; [5]): 5
- pest or weed control at 125 g/ha (yellow nutsedge [3]; Cyperus, post-emergence, 125 g ai/ha, postemergence, visual rating, scale 0 to 100 (0 no effect, 100 complete control), read-out: Plant response rating, Nutsedge, Yellow): 5%
- pest or weed control at 250 g/ha (yellow nutsedge [3]; Cyperus, post-emergence, 250 g ai/ha, postemergence, read-out: Plant response rating (0 to 100), Nutsedge, Yellow): 5%
- pest or weed control at 62 g/ha (yellow nutsedge [3]; Cyperus, post-emergence, Postemergence, 62 g ai/ha, scale 0 to 100 (0 no effect, 100 complete control), 13 to 15 days, read-out: Plant response rating, Nutsedge, Yellow): 5%
- Oat, Wild plant response rating (wild oat; [5]): 5
- pest or weed control at 125 g/ha (wild oat; Avena fatua, post-emergence, 125 g ai/ha, postemergence, visual rating, scale 0 to 100 (0 no effect, 100 complete control), read-out: Plant response rating, Oat, Wild): 40%
- pest or weed control at 250 g/ha (wild oat; Avena fatua, post-emergence, 250 g ai/ha, postemergence, read-out: Plant response rating (0 to 100), Oat, Wild): 45%
- pest or weed control at 62 g/ha (wild oat; Avena fatua, post-emergence, Postemergence, 62 g ai/ha, scale 0 to 100 (0 no effect, 100 complete control), 13 to 15 days, read-out: Plant response rating, Oat, Wild): 15%
- pest or weed control at 31 g/ha (blackgrass; 31 g ai/ha, postemergence, visual rating, scale 0 to 100 (0 no effect, 100 complete control), 13 to 15 days, read-out: Blackgrass plant response rating): 15%
- pest or weed control at 125 g/ha (blackgrass; 125 g ai/ha, postemergence, visual rating, scale 0 to 100 (0 no effect, 100 complete control), read-out: Plant response rating, Blackgrass): 30%
- pest or weed control at 250 g/ha (blackgrass; 250 g ai/ha, postemergence, read-out: Plant response rating (0 to 100), Blackgrass): 35%
- pest or weed control at 62 g/ha (blackgrass; Postemergence, 62 g ai/ha, scale 0 to 100 (0 no effect, 100 complete control), 13 to 15 days, read-out: Plant response rating, Blackgrass): 20%
- Ragweed plant response rating (ragweed; [5]): 15
- pest or weed control at 125 g/ha (ragweed; Ambrosia artemisiifolia, post-emergence, 125 g ai/ha, postemergence, visual rating, scale 0 to 100 (0 no effect, 100 complete control), read-out: Plant response rating, Ragweed): 50%
- pest or weed control at 250 g/ha (ragweed; Ambrosia artemisiifolia, post-emergence, 250 g ai/ha, postemergence, read-out: Plant response rating (0 to 100), Ragweed): 50%
- pest or weed control at 62 g/ha (ragweed; Ambrosia artemisiifolia, post-emergence, Postemergence, 62 g ai/ha, scale 0 to 100 (0 no effect, 100 complete control), 13 to 15 days, read-out: Plant response rating, Ragweed): 25%
- pest or weed control at 125 g/ha (pigweed [4]; 125 g ai/ha, preemergence, scale 0 (no effect) to 100 (complete control), read-out: Pigweed plant response rating): 100%
- pest or weed control at 250 g/ha (pigweed [4]; 250 g ai/ha, preemergence, scale 0 (no effect) to 100 (complete control), read-out: Pigweed plant response rating): 100%
- pest or weed control at 62 g/ha (pigweed [4]; Preemergence, 62 g ai/ha, scale 0 to 100, 0 no effect, 100 complete control, read-out: Plant response rating, Pigweed): 100%
- plant injury at 125 g/ha (soybean; 125 g ai/ha, preemergence, scale 0 (no effect) to 100 (complete control), read-out: Soybean plant response rating): 25%
- plant injury at 250 g/ha (soybean; 250 g ai/ha, preemergence, scale 0 (no effect) to 100 (complete control), read-out: Soybean plant response rating): 45%
- plant injury at 62 g/ha (soybean; Preemergence, 62 g ai/ha, scale 0 to 100, 0 no effect, 100 complete control, read-out: Plant response rating, Soybean): 20%
- Corn plant response rating (0 to 100 scale) (corn; 125 g ai/ha): 30
- plant injury at 500 g/ha (corn; Zea mays, pre-emergence, 240 h, 500 g ai/ha, 0 to 100 scale where 0 is no effect and 100 is complete control, read-out: Corn plant response rating): 50%
- Ryegrass, Italian plant response rating (Italian ryegrass; [5]): 0
- pest or weed control at 125 g/ha (Italian ryegrass; Lolium multiflorum, post-emergence, 125 g ai/ha, postemergence, visual rating, scale 0 to 100 (0 no effect, 100 complete control), read-out: Plant response rating, Ryegrass, Italian): 0%
- pest or weed control at 250 g/ha (Italian ryegrass; Lolium multiflorum, post-emergence, 250 g ai/ha, postemergence, read-out: Plant response rating (0 to 100), Ryegrass, Italian): 15%
- pest or weed control at 62 g/ha (Italian ryegrass; Lolium multiflorum, post-emergence, Postemergence, 62 g ai/ha, scale 0 to 100 (0 no effect, 100 complete control), 13 to 15 days, read-out: Plant response rating, Ryegrass, Italian): 0%
- pest or weed control at 125 g/ha (velvetleaf; 125 g ai/ha, preemergence, scale 0 (no effect) to 100 (complete control), read-out: Velvetleaf plant response rating): 100%
- pest or weed control at 250 g/ha (velvetleaf; 250 g ai/ha, preemergence, scale 0 (no effect) to 100 (complete control), read-out: Velvetleaf plant response rating): 100%
- pest or weed control at 62 g/ha (velvetleaf; Preemergence, 62 g ai/ha, scale 0 to 100, 0 no effect, 100 complete control, read-out: Plant response rating, Velvetleaf): 75%
- Foxtail, Giant plant response rating (0 to 100 scale) (giant foxtail; 125 g ai/ha): 100
- pest or weed control at 500 g/ha (giant foxtail; Setaria faberi, pre-emergence, 240 h, 500 g ai/ha, 0 to 100 scale where 0 is no effect and 100 is complete control, read-out: Foxtail, Giant plant response rating): 100%
